Test results published in ChEMBL document CHEMBL1126961, “The design and synthesis of kappa opioid ligands based on a binding model for kappa agonists” (Bioorg Med Chem Lett, 1993).

Columns and labels:
Mu-type opioid receptor = Mu-type opioid receptor (Homo sapiens, UniProt P35372); experiment: Tested in vitro for binding affinity against mu opioid receptor
[1] = target: T1, Kappa-type opioid receptor (Homo sapiens, UniProt P41145); experiment: Tested in vitro for binding affinity against Opioid receptor kappa 1
T1 sequence (P41145 whole entry): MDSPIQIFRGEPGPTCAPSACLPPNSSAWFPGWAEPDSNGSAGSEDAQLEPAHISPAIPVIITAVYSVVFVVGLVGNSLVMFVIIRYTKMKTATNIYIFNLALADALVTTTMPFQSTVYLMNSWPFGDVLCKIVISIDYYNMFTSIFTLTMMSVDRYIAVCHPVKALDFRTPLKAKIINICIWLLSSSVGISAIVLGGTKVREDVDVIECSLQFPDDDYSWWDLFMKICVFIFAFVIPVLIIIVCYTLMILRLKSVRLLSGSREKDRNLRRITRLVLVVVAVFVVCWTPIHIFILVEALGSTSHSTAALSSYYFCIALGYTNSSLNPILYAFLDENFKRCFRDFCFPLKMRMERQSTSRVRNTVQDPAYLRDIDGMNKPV

[2] = target: T1, Kappa-type opioid receptor; experiment: Ratio of binding affinity against kappa opioid receptor to binding affinity against mu opioid receptor

Mu-type opioid receptor, sequence (P35372 whole entry): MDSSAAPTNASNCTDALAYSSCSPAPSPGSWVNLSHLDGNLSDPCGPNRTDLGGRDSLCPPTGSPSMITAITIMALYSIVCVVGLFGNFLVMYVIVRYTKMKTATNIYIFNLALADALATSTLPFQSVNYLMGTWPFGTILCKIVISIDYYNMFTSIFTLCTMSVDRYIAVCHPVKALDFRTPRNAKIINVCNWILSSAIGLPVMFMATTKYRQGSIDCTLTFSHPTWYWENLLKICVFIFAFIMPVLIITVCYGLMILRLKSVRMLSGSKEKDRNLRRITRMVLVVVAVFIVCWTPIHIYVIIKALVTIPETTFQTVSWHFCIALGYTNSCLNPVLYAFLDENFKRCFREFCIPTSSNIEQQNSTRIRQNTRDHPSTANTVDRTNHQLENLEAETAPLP

SMILES: O=C1Cc2cccc(c2)OCCCCNCCN1
- Ki (Mu-type opioid receptor): > 10000 nM
- Ki [1]: > 10000 nM

SMILES: CN(C(=O)Cc1c(OCCN2CCCC2)ccc2ccccc12)C1CCCCC1
- Ki (Mu-type opioid receptor): > 10000 nM
- Ki [1]: 160 nM
- Ratio [2]: > 60

SMILES: CC[C@]12CCN(CC3CC3)[C@H](C(=O)c3ccc(O)cc31)[C@@H]2C
- Ki (Mu-type opioid receptor): 1.02 nM

SMILES: O=C(Cc1cccc2occc12)NCC12CCCN1CCC2
- Ki (Mu-type opioid receptor): 3350 nM
- Ki [1]: 940 nM
- Ratio [2]: 3.5
